According to patent US8357678B2, “Chair ruthenium complexes and their use as anticancer agents” (Guangdong Pharmaceutical University, priority 2007, dated 2013):

Legend:
Experiment in all cases: MTT assay, inhibitory activity against growth of cancer cells
Format in all cases: cell-based
[1] = system: Human lung adenocarcinoma epithelial cell line A-549; conditions: Dosage 5 μg/ml, 72 h incubation
Protocol: (§1) The inhibitory activity of these chair ruthenium(II) complexes have been evaluated by MTT assay by using 5-fluorouracil (5-Fu) as positive control. Human hepatocarcinoma cell line Bel-7402, human intestinal adenocarcinoma cell line HCT-8 and Human lung adenocarcinoma epithelial cell line A-549 were supplied by the Institute of Materia Medica, Chinese Academy of Medical Sciences & Peking Union Medical College. The determination of the cytotoxicity (dark toxicity) of the compound was carried out in parallel with the phototoxicity determination following the same procedure, with the exclusion of the irradiation.
(§2) General method: Cells were diluted to 5000/ml by PRMI1640 minimal essential medium with 10% fetal calf serum (FCS), plated at 100 μl cells per well in a 96-well Corning microtiter plate, and incubated at 37° C. with 5% CO2 for 24 h. After cell was covered a single layer, drugs (10 μl) was added, and PRMI1640 minimal essential medium was supplied to make the total volume to 200 μl. After incubated for another 72 h at 37° C., 5% CO2, the medium was removed and freshly prepared MTT dissolved in DMSO (200 μl) was added, and the OD value was recorded on ELISA Reader at 544 nm. The inhibitory activity of ruthenium complexes was calculated according to equation: Inhibitory activity(%)=([…])/(ODcontrol−ODblank)×100%.

[2] = system: human hepatocarcinoma cell line Bel-7402; conditions: 72 h incubation
Protocol: as §1, §2

[3] = system: human intestinal adenocarcinoma cell line HCT-8; conditions: 72 h incubation
Protocol: as §1, §2

Compound: FC(F)(F)c1ccccc1-c1nc2c3ccc[n+]4c3c3c(ccc[n+]3[Ru-4]435([n+]4ccccc4-c4cccc[n+]43)[n+]3ccccc3-c3cccc[n+]35)c2[nH]1.F[P-](F)(F)(F)(F)F.F[P-](F)(F)(F)(F)F [Λ-1, Λ-[Ru(bpy)2(tFPIP)](PF6)2]
- Inhibitory activity (%) A-549 [1]: 56.4%
- Inhibitory activity (%) BEL-7402 ([2]; Dosage 5 μg/ml): 85.2%
- Inhibitory activity (%) BEL-7402 ([2]; Dosage 50 μg/ml): 88.8%
- Inhibitory activity (%) HCT-8 ([3]; Dosage 5 μg/ml): 83.0%
- Inhibitory activity (%) HCT-8 ([3]; Dosage 50 μg/ml): 88.9%

Compound: FC(F)(F)c1ccccc1-c1nc2c3ccc[n+]4c3c3c(ccc[n+]3[Ru-4]435([n+]4ccccc4-c4cccc[n+]43)[n+]3ccccc3-c3cccc[n+]35)c2[nH]1.F[P-](F)(F)(F)(F)F.F[P-](F)(F)(F)(F)F [Δ-1, Δ-[Ru(bpy)2(tFPIP)](PF6)2]
- Inhibitory activity (%) A-549 [1]: 62.0%
- Inhibitory activity (%) BEL-7402 ([2]; Dosage 5 μg/ml): 85.0%
- Inhibitory activity (%) BEL-7402 ([2]; Dosage 50 μg/ml): 88.3%
- Inhibitory activity (%) HCT-8 ([3]; Dosage 5 μg/ml): 81.6%
- Inhibitory activity (%) HCT-8 ([3]; Dosage 50 μg/ml): 86.2%

Compound: F[P-](F)(F)(F)(F)F.F[P-](F)(F)(F)(F)F.c1cc[n+]2c(c1)-c1cccc[n+]1[Ru-4]213([n+]2ccccc2-c2cccc[n+]21)[n+]1ccccc1-c1[nH]c2cc4ccccc4cc2[n+]13 [Λ-4, Λ-[Ru(bpy)2(PYNI)](PF6)2]
- Inhibitory activity (%) A-549 [1]: −2.3%
- Inhibitory activity (%) BEL-7402 ([2]; Dosage 5 μg/ml): 4.4%
- Inhibitory activity (%) BEL-7402 ([2]; Dosage 50 μg/ml): 22.6%
- Inhibitory activity (%) HCT-8 ([3]; Dosage 5 μg/ml): 3.6%
- Inhibitory activity (%) HCT-8 ([3]; Dosage 50 μg/ml): 21.4%

Compound: F[P-](F)(F)(F)(F)F.F[P-](F)(F)(F)(F)F.c1cc[n+]2c(c1)-c1cccc[n+]1[Ru-4]213([n+]2ccccc2-c2cccc[n+]21)[n+]1cccc2c4nc(-c5ccc6c(c5)OCCO6)[nH]c4c4ccc[n+]3c4c21 [Λ-3, Λ-[Ru(bpy)2(IPBH)](PF6)2]
- Inhibitory activity (%) A-549 [1]: −0.92%
- Inhibitory activity (%) BEL-7402 ([2]; Dosage 5 μg/ml): 3.0%
- Inhibitory activity (%) BEL-7402 ([2]; Dosage 50 μg/ml): 44.3%
- Inhibitory activity (%) HCT-8 ([3]; Dosage 5 μg/ml): 2.1%
- Inhibitory activity (%) HCT-8 ([3]; Dosage 50 μg/ml): 39.1%

Compound: F[P-](F)(F)(F)(F)F.F[P-](F)(F)(F)(F)F.c1cc[n+]2c(c1)-c1cccc[n+]1[Ru-4]213([n+]2ccccc2-c2cccc[n+]21)[n+]1ccccc1-c1[nH]c2cc4ccccc4cc2[n+]13 [Δ-4, Δ-[Ru(bpy)2(PYNI)](PF6)2]
- Inhibitory activity (%) A-549 [1]: −8.2%
- Inhibitory activity (%) BEL-7402 ([2]; Dosage 5 μg/ml): 2.8%
- Inhibitory activity (%) BEL-7402 ([2]; Dosage 50 μg/ml): 36.0%
- Inhibitory activity (%) HCT-8 ([3]; Dosage 5 μg/ml): 1.8%
- Inhibitory activity (%) HCT-8 ([3]; Dosage 50 μg/ml): 38.6%

Compound: Λ-[Ru(bpy)2(IPBP)](PF6)2 [Λ-2]
- Inhibitory activity (%) A-549 [1]: −0.52%
- Inhibitory activity (%) BEL-7402 ([2]; Dosage 5 μg/ml): 0.19%
- Inhibitory activity (%) BEL-7402 ([2]; Dosage 50 μg/ml): 64.9%
- Inhibitory activity (%) HCT-8 ([3]; Dosage 5 μg/ml): 2.23%
- Inhibitory activity (%) HCT-8 ([3]; Dosage 50 μg/ml): 53.7%

Compound: Δ-[Ru(bpy)2(IPBP)](PF6)2 [Δ-2]
- Inhibitory activity (%) A-549 [1]: 18.5%
- Inhibitory activity (%) BEL-7402 ([2]; Dosage 5 μg/ml): 9.6%
- Inhibitory activity (%) BEL-7402 ([2]; Dosage 50 μg/ml): 86.8%
- Inhibitory activity (%) HCT-8 ([3]; Dosage 5 μg/ml): 13.1%
- Inhibitory activity (%) HCT-8 ([3]; Dosage 50 μg/ml): 83.4%
